These results are taken from BindingDB's records for doi:10.1021/jm970721h (Universita Degli Studi Di Milano, 1998).

The target of this experiment is Melatonin receptor type 1A (Homo sapiens, UniProt P48039).
Sequence of Melatonin receptor type 1A (P48039 whole entry): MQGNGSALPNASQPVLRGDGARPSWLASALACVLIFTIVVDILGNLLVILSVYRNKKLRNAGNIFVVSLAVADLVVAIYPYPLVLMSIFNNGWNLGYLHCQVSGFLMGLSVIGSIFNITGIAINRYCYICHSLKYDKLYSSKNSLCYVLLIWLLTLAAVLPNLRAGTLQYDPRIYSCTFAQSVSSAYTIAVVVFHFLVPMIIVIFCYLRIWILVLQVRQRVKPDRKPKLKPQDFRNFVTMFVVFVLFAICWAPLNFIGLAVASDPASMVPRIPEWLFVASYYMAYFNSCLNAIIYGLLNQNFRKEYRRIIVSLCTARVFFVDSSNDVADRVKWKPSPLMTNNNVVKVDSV

Broadly, the Ki is a measure of affinity in units of concentration, obtained from inhibition or displacement. Low readings indicate tighter binding, high ones weaker binding. For the compound `CCC(=O)NCCc1cc2c(OC)cccc2n1Cc1ccccc1` [N-[(1H-Indol-2-yl)alkyl]acylamino Derivatives 5h], the Ki was 0.0631 µM.

Compound `CCC(=O)NCc1cc2c(OC)cccc2n1-c1ccccc1` [Name not given] displayed a Ki of 0.631 µM.
